Experimental data taken from patent EP0563345B1, “NOVEL 4-ARYLPIPERAZINES AND 4-ARYLPIPERIDINES” (MCNEILAB, INC., priority 1991, dated 1993).
Like-named read-outs stand apart in the source and are kept apart here.

Experiments:
[1] = tested on: Male, Fischer 344 rats; test: Block of Conditioned Avoidance Responding (Rat) test (CAR); conditions: for CAR 5 mg/kg IP Administration (% change CAR) / CAR 15 mg/kg IP Administration (% change CAR): negative number = blockade of CAR
Source text: Apparatus: Rat operant chambers, housed within sound attenuated booths, both from Capden Instruments Ltd., were used in this test. The test chamber (8" H x […] D) is constructed of aluminum and plexiglass with floor grid bars of stainless-steel (1/8" O.D.) spaced 9/16" apart. A stainless-steel operation level 1-1/2" wide projects 3/4" into the chamber and is positioned 2-2/8" above the grid floor. The shock stimulus is delivered via the grid floor by a Coulbourn Instruments solid state module. The parameters of the test and the collection of data are controlled automatically.
The rats are trained for two weeks to approach criterion levels in the avoidance test (90% avoidance rate). One-hour training sessions are run at about the same time each day for four or five days a week. The training session consists of 120 trials, with the conditioned stimuli presented every 30 sec. A trial begins with presentation of the conditioned stimuli (a light and a tone). If the rat responds by depressing the operant lever during the 15-second presentation of the conditioned stimuli, the trial is terminated and the animal is credited with a CAR. Failure to respond during the conditioned stimuli causes the presentation of the unconditioned stimulus (UCS), a 0.7 mA shock which is accompanied by a light and tone for five seconds. If the rat depressed the lever within the ten-second period, the shock and trial are terminated and an escape response recorded. If the rat fails to depress the lever during the UCS (shock), the trial is terminated after ten seconds of shock and the absence of a response is scored as a failure to escape. Intertrial level presses have no effect. If a rat performs at the 90% CAR level for two weeks, it is then run twice a week on the test schedule (see below) until baseline performance stabilized.
Trained rats are run in a one-hour session on two consecutive days at the same time and in the same test chamber each day. The sessions consist of 60 trials, one every minute. The conditioned stimuli are presented for 15 sec (maximum) and the unconditioned stimuli five sec (maximum). On Day 1, a vehicle solution is administered to the rats at a time preceding the trial run corresponding to the pretreatment time for the test compound. The route of administration and the volume of vehicle are also matched to that of the test compound.
The percent change in CAR on the drug treatment day compared to vehicle pretreatment day is the key measure. The percent change (% change) in CAR is determined using the following formula: % change CAR = ((% CAR for Day 2/% CAR for Day 1) x 100)-100 [formula]
A negative number indicates a blockade of CAR, whereas a positive number would indicate increased CAR. The test results are reported as the mean % change for the group of rats. Failure to escape, a measure of the general sedative potential of the compound, was calculated for each animal as follows: % Failures = # of Failures to Escape/# of trials [formula]
The % failures, viz., loss of escape, is also reported as a group mean. Failures to escape are monitored closely and a session is terminated if ten failures occurred.
In the Tables and formulas therein, OiPr is isopropoxy, Me is methyl, MeO is methoxy, Et is ethyl, Ph is phenyl, n-Bu is normal butyl, cC6H11 is cyclohexyl, BOC is t-butyloxycarbonyl, Ac is acetyl, and NT is not tested in that partcular test. The escape loss numbers are shown at CAR 5 mg/kg unless otherwise noted.

[2] = tested on: Male Charles-River rats; test: Rat Glass Bead Test (propulsive motility of the distal colon); format: in vivo; conditions: mean expulsion time of glass bead
Experimental: The rat glass bead test is used to evaluate the action of compounds on propulsive motility of the distal colon. Male Charles-River rats weighing 50-90 grams are fasted for at least 18 hours in individual cages with water provided. Groups of rats are then dosed by the indicated route at the appropriate pretreatment time. A 4 mm glass bead is then inserted 3.5 cm into the distal colon through the anus using a 4 mm diameter glass rod. Rats are then placed in open top glass jars and observed for 60 minutes. The time for expulsion of the bead is noted for each rat. Rats not expelling the bead after 60 minutes are necropsied and the presence of the bead in the colon confirmed. […] Statistical analysis is done using one way analysis of variance and Fisher's LSD comparison. A probability of less than 0.05 is considered to be statistically significant.

[3] = target: T1, D-2 (dopamine-2) receptors (Rattus norvegicus, UniProt P61169); test: biochemical; format: binding, male, Wistar rats
T1 construct: The D2 assay employed a P2 fraction from the striatum, the ligand ^3H-spiperone at a concentration of 0.05 nM; from tissue; host or cells: rat striatum, P2 fraction (synaptosomal membranes), male Wistar rats
Experimental: The dopamine D2 binding activity of compounds was determined using a P2 fraction (synaptosomal membranes) prepared from male, Wistar rats.
The data from this assay were analyzed by calculating the percent inhibition of the binding of the tritiated ligands by given concentrations of the test compound. Kl values, where given, were obtained from the logit analysis of concentration-inhibition curves.

[4] = rat striatum P2 fraction, 3H-spiperone 0.05 nM, read-out: Receptor Binding (Ki nM) D2

T1 sequence (P61169 whole entry): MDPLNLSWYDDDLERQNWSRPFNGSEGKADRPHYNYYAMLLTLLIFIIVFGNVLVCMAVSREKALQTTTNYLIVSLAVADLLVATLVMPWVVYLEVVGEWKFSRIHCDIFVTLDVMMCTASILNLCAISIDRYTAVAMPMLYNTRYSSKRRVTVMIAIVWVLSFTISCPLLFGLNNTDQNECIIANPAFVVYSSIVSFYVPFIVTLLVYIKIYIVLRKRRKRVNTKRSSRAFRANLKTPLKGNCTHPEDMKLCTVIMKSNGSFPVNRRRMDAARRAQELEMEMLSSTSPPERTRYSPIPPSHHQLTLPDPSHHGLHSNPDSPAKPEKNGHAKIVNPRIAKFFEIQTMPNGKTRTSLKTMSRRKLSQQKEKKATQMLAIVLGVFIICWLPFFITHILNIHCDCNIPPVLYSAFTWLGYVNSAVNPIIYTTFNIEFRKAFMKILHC

Compound	CAR 5 mg/kg IP Administration (% change CAR) [1]	(Escape Loss) % failures to escape ([1]; at CAR 5 mg/kg IP)	Glass bead expulsion time ([2]; IP, 1.0 mg/kg)	CAR 15 mg/kg IP Administration (% change CAR) [1]	(Escape Loss) % failures to escape ([1]; at CAR 15 mg/kg IP)	Ki [3, 4]	further results
CC(=O)N(C)C(=O)c1cccc(CN2CCN(c3ccccc3OC(C)C)CC2)c1 [Compound 73]	-48%	22%	–	–	–	–	Glass bead expulsion time ([2]; PO, 40.0 mg/kg): 25 min
CC(C)Oc1ccccc1N1CCN(Cc2cccc(C(=O)N(C)C3CCCCC3)c2)CC1 [Compound 72]	-99%	21%	29 min	–	–	–	–
CCCc1ccccc1N1CCN(Cc2cccc(C(=O)N3CCCCC3)c2)CC1 [Compound 81]	–	–	22 min	-8%	0%	–	–
CC(C)Oc1ccccc1N1CCN(Cc2cccc(C(=O)NC3CCCCC3)c2)CC1 [Compound 71]	–	–	23 min	-86%	0%	–	–
CC(C)Oc1ccccc1N1CCN(Cc2ccc(C(=O)N3CCCCC3)cc2)CC1.Cl.Cl [Compound 103, 1-[4-[[4-[2-(1-Methylethoxy)phenyl]-1-piperazinyl]methyl]benzoyl]piperidine Dihydrochloride]	–	–	43 min	–	–	~100 nM	–
O=C(c1cccc(CN2CCN(c3ccccc3Cl)CC2)c1)N1CCCCC1 [Compound 89]	–	–	16 min	-68%	0%	–	–
CC(C)Oc1ccccc1N1CCN(Cc2cccc(C(=O)N3CCCCCCC3)c2)CC1 [Compound 55]	-93%	27%	13 min	–	–	–	–
CC(C)Oc1cc(F)ccc1N1CCN(Cc2cccc(C(=O)N3CCCCC3)c2)CC1 [Compound 78]	-82%	4%	28 min	–	–	–	–
N#Cc1ccccc1N1CCN(Cc2cccc(C(=O)N3CCCCC3)c2)CC1 [Compound 90]	-74%	5%	27 min	–	–	–	–
CC(C)Oc1ccccc1N1CCN(Cc2ccccc2C(=O)N2CCCCCC2)CC1 [Compound 113]	–	–	–	–	–	11 nM	Glass bead expulsion time ([2]; PO, 10.0 mg/kg): 15 min
O=C(c1cccc(CN2CCN(c3cccc(C(F)(F)F)c3)CC2)c1)N1CCCCC1 [Compound 92]	–	–	17 min	-72%	3%	–	–
O=C(c1cccc(CN2CCN(c3cccc4ccccc34)CC2)c1)N1CCCCC1 [Compound 35]	–	–	–	-19%	0%	–	Glass bead expulsion time ([2]; PO, 10.0 mg/kg): 19 min
CCOc1ccccc1N1CCN(Cc2cccc(C(=O)N3CCCCCC3)c2)CC1 [Compound 83]	-97%	26%	21 min	–	–	–	–
CCOC(=O)C1CCCCN1C(=O)c1cccc(CN2CCN(c3ccccc3C)CC2)c1 (stereo not shown) [Compound 18]	–	–	–	-24%	9%	132 nM	–
CC(C)Oc1ccccc1N1CCN(Cc2cccc(C(=O)N3CCOCC3)c2)CC1 [Compound 56]	–	–	15 min	–	–	–	–
CCN1CCCC1CNC(=O)c1cccc(CN2CCN(c3ccccc3OC(C)C)CC2)c1 (stereo not shown) [Compound 76]	–	–	–	-75%	0%	13.9 nM	–
CC(C)Oc1ccccc1N1CCN(Cc2cccc(C(=O)N3CCC(=O)CC3)c2)CC1 [Compound 44]	-68%	16%	–	–	–	–	Ki [3]: 42 nM

Compound	CAR 5 mg/kg IP Administration (% change CAR) [1]	(Escape Loss) % failures to escape ([1]; at CAR 5 mg/kg IP)	Glass bead expulsion time ([2]; IP, 1.0 mg/kg)	CAR 15 mg/kg IP Administration (% change CAR) [1]	(Escape Loss) % failures to escape ([1]; at CAR 15 mg/kg IP)	Ki [3, 4]	further results
CC(C)Oc1ccccc1N1CCN(Cc2cccc(C(=O)N3CCCCC3=O)c2)CC1.O=C(O)/C=C/C(=O)O [Compound 66, 1-[3-[[4-[2-(1-Methylethoxy)phenyl]-1-piperazinyl]methyl]benzoyl]-2-piperidone Fumarate]	–	–	18 min	-92%	0%	–	–
CC(C)Oc1ccccc1N1CCN(Cc2cccc(C(=O)Nc3ccc(F)cc3)c2)CC1 [Compound 75]	–	–	–	–	–	~30 nM	CAR IP Administration (% change CAR) at 30 mg/kg ([1]; 30 mg/kg IP): -1%; (Escape Loss) % failures to escape ([1]; at CAR 30 mg/kg IP): 0%
CC(C)Oc1ccccc1N1CCN(Cc2cccc(C(=O)N3CCCC3CO)c2)CC1 (stereo not shown) [Compound 26]	–	–	–	-100%	43%	9 nM	–
CC(C)Oc1ccccc1N1CCN(Cc2cccc(C(=O)NCCCCCCNC(=O)OC(C)(C)C)c2)CC1 [Compound 98]	–	–	–	-8%	0%	88 nM	–
CC(C)Oc1ccccc1N1CCN(Cc2cccc(C(=O)N3CCC4(CC3)OCCO4)c2)CC1 [Compound 45]	-95%	20%	–	–	–	–	Ki [3]: 20 nM
O=C(c1cccc(CN2CCN(c3nsc4ccccc34)CC2)c1)N1CCCCC1 [Compound 32]	-90%	8%	41 min	–	–	–	–
CC(C)Oc1ccccc1N1CCN(Cc2cccc(C(=O)N(C)CCc3ccccc3)c2)CC1 [Compound 43]	–	–	–	-77%	0%	19 nM	–
COc1ccc(OC)c(N2CCN(Cc3cccc(C(=O)N4CCCCC4)c3)CC2)c1 [Compound 46]	-66%	48%	–	–	–	592 nM	–
COc1ccc(CN2CCN(c3ccccc3OC(C)C)CC2)cc1C(=O)N1CCCCC1 [Compound 29]	-98%	50%	–	–	–	32 nM	–
CC(C)Oc1ccccc1N1CCN(Cc2cccc(C(=O)N(C)Cc3ccccc3)c2)CC1 [Compound 74]	-23%	1%	–	–	–	13 nM	–
CC(C)Oc1ccccc1N1CCN(Cc2cccc(S(=O)(=O)N3CCCC3)c2)CC1 [Compound 106]	-27%	0%	–	–	–	196 nM	–
CC(C)Oc1ccccc1N1CCN(Cc2cccc(C(=O)NCCCCCCN)c2)CC1 [Compound 97]	–	–	–	-99%	26%	15 nM	–
CC(C)Oc1ccccc1N1CCN(Cc2ccccc2C(=O)N(C)C2CCCC2)CC1 [Compound 112]	–	–	11 min	–	–	16 nM	–
CC(C)Oc1ccccc1N1CCN(Cc2cccc(C(=O)N3CCN(c4ccccc4OC(C)C)CC3)c2)CC1 [Compound 50]	0%	1%	–	–	–	171 nM	–
CC(C)Oc1ccccc1N1CCN(Cc2cccc(C(=S)N3CCCCC3)c2)CC1.Cl [Compound 1, 1-[3-[[4-[2-(1-Methylethoxy)phenyl]-1-piperazinyl]methyl]thiobenzoyl]piperidine Hydrochloride]	-71%	20%	–	–	–	8 nM	–
O=C(c1cccc(CN2CCN(c3ncccn3)CC2)c1)N1CCc2ccccc21 [Compound 23]	–	–	–	-62%	9%	> 1000 nM	–
